Legend:
[1] = system: commonly encountered pathogens; settings: cited from earlier work
[2] = high concentrations, ALS for CVADs; cited from earlier work
12 test organisms = assay: MBC/MFC and FMCI, planktonic cells, summary over strains; format: cell-based, bacterial and fungal organisms
Procedure: (§1) The MIC was determined by the micro broth dilution method in 96-well plates. […] A 10 μL containing 1×10^5 bacterial cells or 2×10^3 fungal cells were added to each well. The inoculated plates were covered with a lid, sealed with Parafilm, and incubated for 24 h at 37 °C with slight rocking on a tilting platform shaker. After incubation, the optical density at 600 nm (OD 600) of the cultures in each well was measured using an xMark™ Microplate Absorbance Spectrophotometer (Bio-Rad). The MIC was defined as the lowest concentration of antimicrobial compound at which the culture OD600 values was similar to uninoculated control wells. MBCs and MFCs were determined by transferring 100 μL from each well with no apparent growth onto appropriate agar plates, followed by incubation for 24 h at 37 °C.
(§2) The concentrations of antimicrobials used were based on previously determined MIC values. […] Microtiter plates were incubated at 37 °C for 24 h, and the results were analyzed. Each test was performed in duplicate and included a growth control without the addition of any antimicrobials.

S. epidermidis SK9 = assay: MBC/MFC and FMCI, planktonic cells; format: cell-based; settings: for MBC/MFC: alone
Procedure: as §1, §2

E. coli SK2 = assay: MBC/MFC and FMCI, planktonic cells; format: cell-based; settings: for MBC/MFC: alone
Procedure: as §1, §2

Serratia marcescens SK2 = assay: MBC/MFC and FMCI, planktonic cells; format: cell-based; settings: for MBC/MFC: alone
Procedure: as §1, §2

[3] = system: Staphylococcus aureus ON89; assay: MBC/MFC and FMCI, planktonic cells; format: cell-based; settings: for MBC/MFC: alone
Procedure: as §1, §2

Escherichia coli ON29 = assay: MBC/MFC and FMCI, planktonic cells; format: cell-based; settings: for MBC/MFC: alone
Procedure: as §1, §2

Proteus mirabilis ON153 = assay: MBC/MFC and FMCI, planktonic cells; format: cell-based; settings: for MBC/MFC: alone
Procedure: as §1, §2

[4] = system: Staphylococcus epidermidis ON170; assay: MBC/MFC and FMCI, planktonic cells; format: cell-based; settings: for MBC/MFC: alone
Procedure: as §1, §2

[5] = system: preformed biofilms of test pathogens; assay: MBEC and FBEC index, 48 h old biofilms, summary over strains; format: cell-based, bacterial and fungal strains; settings: alone: 4% tetrasodium EDTA, 50% ethanol, 100 μg/mL chlorhexidine HCl, 24 hours
Procedure: The evaluation of the biofilm cultivation cell composition was evaluated using an MBEC Assay® biofilm inoculator, consisting of a polystyrene lid with 96 downward-protruding pegs and a corresponding base used to grow biofilms. A standardized inoculum was diluted in an appropriate biofilm growth medium to achieve a viable cell count of 1.5×10^6 CFU/mL of bacterial cells or 5×10^5 CFU/mL of fungal cells. Then, 150 μL of this inoculum was transferred into each appropriate well, and the peg lids were inserted into the microtiter plates. The plates were sealed with Parafilm and were incubated at optimum temperature for 48 h with slight rocking for bacteria and shaking at 200 rpm for fungal strains. After incubation, the peg lid was removed from the base and rinsed twice with sterile phosphate-buffered saline (PBS) for 2 min to remove loosely attached non-sessile cells. Before the antimicrobial challenge, the pegs in column 1 (n=8) were considered as the biofilm growth control; these pegs were removed from the lids, placed into 200 μL of recovery medium, and analyzed for starting biofilm cell numbers as described below. […] After the antimicrobial challenge, the pegs were rinsed twice with sterile PBS for 2 min and placed into a new 96-well plate containing 200 μL of recovery medium. The recovery plates were sealed with Parafilm, and biofilm cells were dislodged from the pegs by sonication for 30 min with a Branson 3510 bath sonicator. The biofilm cells in the recovery medium were serially diluted, and a drop dilution assay was performed to enumerate the viable cells.
In step (4), microtiter plates are incubated at 37 °C for 24 h. then (6), after incubation, the bacterial and fungal cells were dislodged from the pegs into the recovery medium described above.
Three 10-μL aliquots, for a total of 30 μL from each well of recovery medium, were spotted on MH agar plates and incubated for 24 hours at 37 °C. […] The FBEC determination is a modification of the FICI. […]

P. aeruginosa = settings: 40 mg/mL, locked for 21-25 h, catheter segments; cited from earlier work
[6] = system: clinically relevant pathogens; settings: 4%; cited from earlier work
S. epidermidis = settings: 40 mg/mL, locked for 21-25 h, catheter segments; cited from earlier work
Klebsiella pneumoniae = settings: 40 mg/mL, locked for 21-25 h, catheter segments; cited from earlier work
[7] = 40 mg/mL solution (4% solution) in distilled water; cited from earlier work
C. albicans = settings: 40 mg/mL, locked for 21-25 h, catheter segments; cited from earlier work
E. coli = settings: 40 mg/mL, locked for 21-25 h, catheter segments; cited from earlier work

SMILES	microbicidal activity (12 test organisms)	MBC/MFC in combination (S. epidermidis SK9; TE + ET in combination) [%]	MBC/MFC (S. epidermidis SK9) [%]	MBC/MFC in combination (E. coli SK2; TE + ET in combination) [%]	MBC/MFC (E. coli SK2) [%]	MBC/MFC in combination (Serratia marcescens SK2; TE + ET in combination) [%]	MBC/MFC (Serratia marcescens SK2) [%]	MBC/MFC in combination ([3]; TE + ET in combination) [%]	MBC/MFC [3] [%]	MBC/MFC in combination (Escherichia coli ON29; TE + ET in combination) [%]	MBC/MFC (Escherichia coli ON29) [%]	MBC/MFC in combination (Proteus mirabilis ON153; TE + ET in combination) [%]	MBC/MFC (Proteus mirabilis ON153) [%]	MBC/MFC in combination ([4]; TE + ET in combination) [%]	MBC/MFC [4] [%]	eradication of all established biofilms [5]	other results
CCO [ET, ethanol]	broad-spectrum microbicidal activity	3.125	12.5	6.25	25	6.25	12.5	3.125	25	6.25	25	6.25	12.5	1.6	6.25	able to eradicate all established biofilms	concentration required for a 3-log reduction [1]: ≥ 60%; adverse events [2]: breaches in catheter integrity, systemic toxicity, and protein precipitation causing intraluminal occlusions
O=C(O)CN(CCN(CC(=O)O)CC(=O)O)CC(=O)O.[Na].[Na].[Na].[Na] [TE, tetrasodium ethylenediaminetetraacetic acid]	broad-spectrum microbicidal activity	0.031	0.5	0.25	0.5	0.25	2	0.25	1	0.25	1	0.063	2	0.031	0.5	able to eradicate all established biofilms	biofilm colonization (P. aeruginosa): reduced biofilm colonization; biofilm eradication and microbial killing [6]: biofilm eradication and microbial killing ability; MBC/MFC in combination (S. epidermidis SK9; TE + CH in combination): 0.008%; MBC/MFC in combination (E. coli SK2; TE + CH in combination): 0.015%; MBC/MFC in combination (Serratia marcescens SK2; TE + CH in combination): 0.125%; MBC/MFC in combination ([3]; TE + CH in combination): 0.008%; MBC/MFC in combination (Escherichia coli ON29; TE + CH in combination): 0.008%; MBC/MFC in combination (Proteus mirabilis ON153; TE + CH in combination): 0.125%; MBC/MFC in combination ([4]; TE + CH in combination): 0.25%; biofilm colonization (S. epidermidis): reduced biofilm colonization; biofilm colonization (Klebsiella pneumoniae): reduced biofilm colonization; pH [7]: ~ 11.0; biofilm colonization (C. albicans): reduced biofilm colonization; biofilm colonization (E. coli): reduced biofilm colonization

— patent US20260335495A1, “SYNERGISTIC ACTIVITY OF NOVEL COMPOUNDS AGAINST PLANKTONIC AND BIOFILM CELLS OF CLINICALLY RELEVANT PATHOGENS” (priority 2021, published 2026)
